{"source": "patent US11230542B2", "about": "“Inhibitors of integrated stress response pathway” (Praxis Biotech LLC, priority 2017, dated 2022)", "key": {"[1]": {"system": "ATF4", "experiment": "ATF4 expression inhibition assay (thapsigargin-stressed HEK293T cells, western blot)", "type": "cell-based", "conditions": "Homo sapiens, HEK-293T", "method_in_brief": "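HEK293T cells treated with thapsigargin (Tg) plus test compound (100 nM or 1 μM) for 3 hours, then lysed; ATF4 measured by western blot with ECL and densitometry. % inhibition normalized to Tg alone (0%) and untreated cells (100%); IC50 also calculated.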"}, "[2]": {"system": "Balb/c mice with immobilized hindlimb", "experiment": "Immobilization-induced muscle atrophy", "type": "in vivo, mouse", "conditions": "10 mg/kg oral, 3 days immobilization", "method": "Wild type eight-weeks-old male Balb/c mice obtained from the vivarium Fundacion Ciencia & Vida Chile (Santiago, Chile) were used. Mice were housed in independent plastic cages, fed ad libitum in a room maintained at 25° C. with a 12-h:12-h light:dark cycle.\nTwenty-four hours before and during the 3 days of immobilization procedures, animals received oral administration via feeding tubes (15 gauge) of vehicle (50% Polyethylene glycol 400 (Sigma-Aldrich P3265) in distilled water or 10 mg/kg of compound 3 formulated in vehicle.\nOne hindlimb was immobilized with a plastic stick placed over and under the limb and fixed with a medical adhesive bandage. Animals were daily monitored. The immobilization procedure prevented movement of the immobilized leg alone. After 3 days, the animals were sacrificed and gastrocnemius, quadriceps and tibialis anterior muscles were removed from both hindlimbs, the contralateral, non-immobilized leg being used as an internal control. […]\nUpon collection, muscles were immediately frozen in liquid nitrogen and then stored at −80° C. […] Protein concentration in supernatants was determined using BCA Protein Assay Kit (Pierce). […]\nPuromycin (12D10) (Merck Millipore) and β-actin (Sigma-Aldrich) antibodies were used as primary antibodies. […] Quantification of protein bands was done by densitometry using ImageJ software. […]"}, "[3]": {"system": "CT26 colon carcinoma cell line", "experiment": "Tumor growth and density model", "type": "in vivo, mouse", "conditions": "10 mg/kg daily oral gavage for 13 days from day 6 post tumor-cell injection", "method": "Wild type six-weeks-old male Balb/c mice obtained from the vivarium Fundacion Ciencia & Vida Chile (Santiago, Chile) were used. Mice were housed in independent plastic cages in a room maintained at 25° C. with a 12-h:12-h light:dark cycle.\n1×10^6 CT26 colon carcinoma cell line (ATCC #CRL-2638, ATCC Manassas, Va.) were injected subcutaneously in the right lower flank of each animal as described (Nat Commun. 2012 Jun. 12; 3:896). Non-injected animals were used as controls. At day 6 post tumor-cell injection, mean tumor volume was about 100 mm^3, animals were weighed and randomized into two groups and treated with 10 mg/kg of compound 3 formulated in 50% Polyethylene glycol (PEG-400) in distilled water, or with vehicle (50% PEG-400 in distilled water) by daily oral gavage for 13 days.\nAt the end of the study, tumors were measured with digital caliper and tumors volumes, expressed in mm^3, were calculated with the following formula: Tumor volume (mm^3)=(a×b^2)/2 where “a” is the largest perpendicular diameter and “b” is the smallest diameter. Animals were then sacrificed and tumors were extracted and weighed. The volumes and weight of the tumors of each animal are shown in FIGS. 12A and 12B respectively. Bars represent mean±SEM. Statistical analyses were performed using GraphPad Prism software and significant difference was assessed by t test (*<0.05)."}}, "data": [{"smiles": "O=C(COc1ccc(Cl)cc1)N[C@H]1CC[C@H](NC[C@@H](O)COc2ccc(Cl)cc2)CC1", "note": "(single isomer, unassigned) [Compound 3, (+)-2-(4-chlorophenoxy)-N-(4-((3-(4-chlorophenoxy)-2-hydroxypropyl)amino)cyclohexyl)acetamide]", "values": [{"measurement": "IC50", "setting": "[1]; 3 h with 100 nM Tg, test compound 1 nM to 1 μM", "result": 145, "unit": "nM"}, {"measurement": "inhibition at 0.1 µM", "setting": "[1]; 3 h with 100 nM thapsigargin (Tg) and 100 nM test compound, Tg alone 0%, untreated 100%", "result": 35, "unit": "%"}, {"measurement": "inhibition at 1 µM", "setting": "[1]; 3 h with 100 nM thapsigargin (Tg) and 1 μM test compound, Tg alone 0%, untreated 100%", "result": 77, "unit": "%"}, {"measurement": "protein synthesis in immobilized hindlimb muscle", "setting": "[2]; gastrocnemius", "result": "partial recovery of protein synthesis"}, {"measurement": "protein synthesis in immobilized hindlimb muscle", "setting": "[2]; tibialis anterior and quadriceps", "result": "complete recovery of protein synthesis"}, {"measurement": "tumor density (weight/volume ratio)", "setting": "[3]", "result": "significantly reduce the tumor density"}, {"measurement": "tumor volume", "setting": "[3]", "result": "does not reduce tumor volume"}]}]}
